Results: patent US20260132125A1, “PESTICIDALLY ACTIVE FUSED BICYCLIC HETEROAROMATIC COMPOUNDS” (priority 2022, published 2026)

How the values were obtained:
Format in all cases: in vivo
Chilo suppressalis = assay: Example B1: activity against Chilo suppressalis (striped rice stemborer), artificial diet; details: for percent control (mortality, anti-feedant effect or growth inhibition) at 200 ppm: 144 h, L2 larvae, 6 days after infestation, read-out: control (at least one of mortality, anti-feedant effect, growth inhibition)
Description: 24-well microtiter plates with artificial diet were treated with aqueous test solutions prepared from 10′000 ppm DMSO stock solutions by pipetting. After drying, the plates were infested with L2 larvae (6-8 per well). The samples were assessed for mortality, anti-feeding effect, and growth inhibition in comparison to untreated samples 6 days after infestation. Control of Chilo suppressalis by a test sample is given when at least one of the categories mortality, anti-feedant effect, and growth inhibition is higher than the untreated sample.

Diabrotica balteata = assay: Example B2: activity against Diabrotica balteata (corn root worm), maize sprouts; details: 96 h, L2 larvae, 4 days after infestation, read-out: effect in at least one of the two categories (mortality or growth inhibition)
Description: Maize sprouts placed onto an agar layer in 24-well microtiter plates were treated with aqueous test solutions prepared from 10′000 ppm DMSO stock solutions by spraying. After drying, the plates were infested with L2 larvae (6 to 10 per well). The samples were assessed for mortality and growth inhibition in comparison to untreated samples 4 days after infestation. The following compounds gave an effect of at least 80% in at least one of the two categories (mortality or growth inhibition) at an application rate of 200 ppm: P1, P2, P3, P4, P5, P7, P8, P9, P10, P11, P12, P13, P14, P15, P16, P17, P18, P19, P20, P21, P22, P23, P24, P25, P26, P27, P28, P29, P30, P31, P33, P34, P35, P36, P37, P38, P39, P40, P41, P42, P43, P45, P46, P47, P48, P49, P50, P51, P52, P53, P55, P57, P58, P59, P60, P61, P62, P63, P64, P65, P66, P67, P69, P71, P75, P81, P82, P83.

Spodoptera littoralis = assay: Example B6: activity against Spodoptera littoralis (Egyptian cotton leaf worm), cotton leaf discs; details: foliar, 72 h, 200 ppm, L1 larvae, 3 days after infestation, read-out: control (at least one of mortality, anti-feedant effect, growth inhibition)
Description: Cotton leaf discs were placed onto agar in 24-well microtiter plates and sprayed with aqueous test solutions prepared from 10′000 ppm DMSO stock solutions. After drying the leaf discs were infested with five L1 larvae. The samples were assessed for mortality, anti-feeding effect, and growth inhibition in comparison to untreated samples 3 days after infestation. Control of Spodoptera littoralis by a test sample is given when at least one of the categories mortality, anti-feedant effect, and growth inhibition is higher than the untreated sample.

Myzus persicae = assay: Example B4: activity against Myzus persicae (green peach aphid), intrinsic activity; details: 120 h, test rate 12 ppm, 5 days after infestation
Description: Test compounds prepared from 10′000 ppm DMSO stock solutions were applied by pipette into 24-well microtiter plates and mixed with sucrose solution. The plates were closed with a stretched Parafilm. A plastic stencil with 24 holes was placed onto the plate and infested pea seedlings were placed directly on the Parafilm. The infested plate was closed with a gel blotting paper and another plastic stencil and then turned upside down. The samples were assessed for mortality 5 days after infestation.

Plutella xylostella = assay: Example B5: activity against Plutella xylostella (diamond back moth), artificial diet, eggs; details: 192 h, 8 days after infestation, read-out: effect in at least one of the two categories (mortality or growth inhibition)
Description: 24-well microtiter plates with artificial diet were treated with aqueous test solutions prepared from 10′000 ppm DMSO stock solutions by pipetting. After drying, Plutella eggs were pipetted through a plastic stencil onto a gel blotting paper and the plate was closed with it. The samples were assessed for mortality and growth inhibition in comparison to untreated samples 8 days after infestation. The following compounds gave an effect of at least 80% in at least one of the two categories (mortality or growth inhibition) at an application rate of 200 ppm: P1, P2, P3, P4, P5, P6, P7, P8, P9, P10, P11, P12, P13, P14, P15, P16, P17, P18, P19, P20, P21, P22, P23, P24, P25, P26, P27, P28, P29, P30, P31, P32, P33, P34, P35, P36, P37, P38, P39, P40, P41, P42, P43, P44, P45, P46, P47, P48, P49, P50, P51, P52, P53, P54, P55, P57, P58, P59, P60, P61, P62, P63, P64, P65, P66, P67, P69, P70, P71, P72, P73, P74, P75, P77, P78, P81, P82, P83.

C[C@H](Nc1ncnc2c(C(F)(F)F)cc(Cl)cc12)c1ncnn1-c1cc(C(=O)N(C)O)ncn1 [Compound P46, 6-[5-[(1S)-1-[[6-chloro-8-(trifluoromethyl)quinazolin-4-yl]amino]ethyl]-1,2,4-triazol-1-yl]-N-hydroxy-N-methyl-pyrimidine-4-carboxamide]
percent control (mortality, anti-feedant effect or growth inhibition) at 200 ppm (Chilo suppressalis): ≥ 80% | percent effect (mortality or growth inhibition) at 200 ppm (Diabrotica balteata): ≥ 80% | percent control (mortality, anti-feedant effect or growth inhibition) at 200 ppm (Spodoptera littoralis): ≥ 80% | mortality at 12 ppm (Myzus persicae): ≥ 80% | percent effect (mortality or growth inhibition) at 200 ppm (Plutella xylostella): ≥ 80%

C[C@H](Nc1ncnc2c(C(F)(F)F)cc(Cl)cc12)c1ncnn1-c1cc(C(=O)NC(C)(C)C#N)ncn1 [Compound P43, 6-[5-[(1S)-1-[[6-chloro-8-(trifluoromethyl)quinazolin-4-yl]amino]ethyl]-1,2,4-triazol-1-yl]-N-(1-cyano-1-methyl-ethyl)pyrimidine-4-carboxamide]
percent control (mortality, anti-feedant effect or growth inhibition) at 200 ppm (Chilo suppressalis): ≥ 80% | percent effect (mortality or growth inhibition) at 200 ppm (Diabrotica balteata): ≥ 80% | percent control (mortality, anti-feedant effect or growth inhibition) at 200 ppm (Spodoptera littoralis): ≥ 80% | mortality at 12 ppm (Myzus persicae): ≥ 80% | percent effect (mortality or growth inhibition) at 200 ppm (Plutella xylostella): ≥ 80%

C[C@H](Nc1ncnc2c(I)cc(Cl)cc12)c1ncnn1-c1cc(C#N)ncn1 [Compound P40, 6-[5-[(1S)-1-[(6-chloro-8-iodo-quinazolin-4-yl)amino]ethyl]-1,2,4-triazol-1-yl]pyrimidine-4-carbonitrile]
percent control (mortality, anti-feedant effect or growth inhibition) at 200 ppm (Chilo suppressalis): ≥ 80% | percent effect (mortality or growth inhibition) at 200 ppm (Diabrotica balteata): ≥ 80% | percent control (mortality, anti-feedant effect or growth inhibition) at 200 ppm (Spodoptera littoralis): ≥ 80% | mortality at 12 ppm (Myzus persicae): ≥ 80% | percent effect (mortality or growth inhibition) at 200 ppm (Plutella xylostella): ≥ 80%

C[C@H](Nc1ncnc2c(C(F)(F)F)cc(Cl)cc12)c1ncnn1-c1cc(C(=O)NC2CSC2)ncn1 [Compound P25, 6-[5-[(1S)-1-[[6-chloro-8-(trifluoromethyl)quinazolin-4-yl]amino]ethyl]-1,2,4-triazol-1-yl]-N-(thietan-3-yl)pyrimidine-4-carboxamide]
percent control (mortality, anti-feedant effect or growth inhibition) at 200 ppm (Chilo suppressalis): ≥ 80% | percent effect (mortality or growth inhibition) at 200 ppm (Diabrotica balteata): ≥ 80% | percent control (mortality, anti-feedant effect or growth inhibition) at 200 ppm (Spodoptera littoralis): ≥ 80% | mortality at 12 ppm (Myzus persicae): ≥ 80% | percent effect (mortality or growth inhibition) at 200 ppm (Plutella xylostella): ≥ 80%

C[C@H](Nc1ncnc2c(C(F)(F)F)cc(Cl)cc12)c1ncnn1-c1cc(C#N)ncn1 [Compound P19, 6-[5-[(1S)-1-[[6-chloro-8-(trifluoromethyl)quinazolin-4-yl]amino]ethyl]-1,2,4-triazol-1-yl]pyrimidine-4-carbonitrile]
mortality at 12.5 ppm (Chilo suppressalis; 12.5 ppm): 80% | percent control (mortality, anti-feedant effect or growth inhibition) at 200 ppm (Chilo suppressalis): ≥ 80% | percent effect (mortality or growth inhibition) at 200 ppm (Diabrotica balteata): ≥ 80% | percent control (mortality, anti-feedant effect or growth inhibition) at 200 ppm (Spodoptera littoralis): ≥ 80% | mortality at 12 ppm (Myzus persicae): ≥ 80% | percent effect (mortality or growth inhibition) at 200 ppm (Plutella xylostella): ≥ 80%

C[C@H](Nc1ncnc2c(I)cc(Cl)cc12)c1ncnn1-c1cnc(C(=O)NCC#N)cn1 [Compound P73, 5-[5-[(1S)-1-[(6-chloro-8-iodo-quinazolin-4-yl)amino]ethyl]-1,2,4-triazol-1-yl]-N-(cyanomethyl)pyrazine-2-carboxamide]
percent control (mortality, anti-feedant effect or growth inhibition) at 200 ppm (Chilo suppressalis): ≥ 80% | percent control (mortality, anti-feedant effect or growth inhibition) at 200 ppm (Spodoptera littoralis): ≥ 80% | mortality at 12 ppm (Myzus persicae): ≥ 80% | percent effect (mortality or growth inhibition) at 200 ppm (Plutella xylostella): ≥ 80%

C[C@H](Nc1ncnc2c(Br)cc(Br)cc12)c1ncnn1-c1cnc(C(=O)NCC#N)cn1 [Compound P72, N-(cyanomethyl)-5-[5-[(1S)-1-[(6,8-dibromoquinazolin-4-yl)amino]ethyl]-1,2,4-triazol-1-yl]pyrazine-2-carboxamide]
percent control (mortality, anti-feedant effect or growth inhibition) at 200 ppm (Chilo suppressalis): ≥ 80% | percent control (mortality, anti-feedant effect or growth inhibition) at 200 ppm (Spodoptera littoralis): ≥ 80% | mortality at 12 ppm (Myzus persicae): ≥ 80% | percent effect (mortality or growth inhibition) at 200 ppm (Plutella xylostella): ≥ 80%
